In the NIST ThermoML archive (doi:10.1016/j.fluid.2014.04.038):
Values joined by “and” are separate entries in the source; they are usually repeats but may differ in a detail not shown here. Equal entries are not always repeated. ± gives the expanded uncertainty stated by the source.

Conditions: Hot wire method

CCF [fluoroethane]
Liquid
Conditions	thermal conductivity
233.99 K	0.1496 ± 0.006 W/m/K
234 K	0.1487 ± 0.006 W/m/K
234.01 K	0.1487 ± 0.006 W/m/K
234.32 K	0.1483 ± 0.006 W/m/K and 0.1482 ± 0.006 W/m/K and 0.1492 ± 0.006 W/m/K
234.57 K	0.1496 ± 0.006 W/m/K
234.63 K	0.1492 ± 0.006 W/m/K
234.64 K	0.149 ± 0.006 W/m/K
244.01 K	0.1429 ± 0.0057 W/m/K
244.04 K	0.1429 ± 0.0057 W/m/K and 0.1423 ± 0.0057 W/m/K
244.22 K	0.1424 ± 0.0057 W/m/K
244.25 K	0.143 ± 0.0057 W/m/K
244.26 K	0.1433 ± 0.0058 W/m/K
244.5 K	0.1426 ± 0.0057 W/m/K
244.51 K	0.142 ± 0.0057 W/m/K
244.54 K	0.1426 ± 0.0057 W/m/K
253.79 K	0.1362 ± 0.0055 W/m/K and 0.1361 ± 0.0055 W/m/K
253.8 K	0.1362 ± 0.0055 W/m/K
254.08 K	0.1364 ± 0.0055 W/m/K
254.09 K	0.1368 ± 0.0055 W/m/K and 0.1363 ± 0.0055 W/m/K
254.12 K	0.1357 ± 0.0054 W/m/K
254.14 K	0.135 ± 0.0054 W/m/K
254.15 K	0.1346 ± 0.0054 W/m/K
254.36 K	0.1352 ± 0.0054 W/m/K
254.37 K	0.1358 ± 0.0055 W/m/K
254.41 K	0.1355 ± 0.0054 W/m/K
254.71 K	0.1359 ± 0.0055 W/m/K
254.75 K	0.1355 ± 0.0054 W/m/K
254.79 K	0.1354 ± 0.0054 W/m/K
263.94 K	0.1286 ± 0.0052 W/m/K
263.95 K	0.128 ± 0.0052 W/m/K and 0.1283 ± 0.0052 W/m/K
264.16 K	0.1283 ± 0.0052 W/m/K
264.17 K	0.1287 ± 0.0052 W/m/K
264.19 K	0.1288 ± 0.0052 W/m/K
264.43 K	0.1285 ± 0.0052 W/m/K
264.51 K	0.1293 ± 0.0052 W/m/K and 0.129 ± 0.0052 W/m/K
274.37 K	0.1215 ± 0.0049 W/m/K
274.39 K	0.1214 ± 0.0049 W/m/K
274.4 K	0.1213 ± 0.0049 W/m/K
274.62 K	0.1218 ± 0.0049 W/m/K
274.64 K	0.1224 ± 0.0049 W/m/K
274.66 K	0.122 ± 0.0049 W/m/K
274.95 K	0.1224 ± 0.0049 W/m/K
274.97 K	0.1224 ± 0.0049 W/m/K
274.98 K	0.1226 ± 0.0049 W/m/K
284.17 K	0.1146 ± 0.0046 W/m/K
284.22 K	0.1146 ± 0.0046 W/m/K
284.23 K	0.1153 ± 0.0046 W/m/K
284.43 K	0.1154 ± 0.0046 W/m/K
284.46 K	0.1155 ± 0.0046 W/m/K
284.47 K	0.1152 ± 0.0046 W/m/K
284.78 K	0.1163 ± 0.0047 W/m/K
284.8 K	0.1164 ± 0.0047 W/m/K
284.81 K	0.1162 ± 0.0047 W/m/K
294.43 K	0.1097 ± 0.0044 W/m/K
294.59 K	0.1098 ± 0.0044 W/m/K
294.63 K	0.1109 ± 0.0045 W/m/K and 0.1095 ± 0.0044 W/m/K
294.64 K	0.1105 ± 0.0044 W/m/K
294.65 K	0.1103 ± 0.0044 W/m/K
294.7 K	0.1103 ± 0.0044 W/m/K
294.89 K	0.1094 ± 0.0044 W/m/K

Gas
Conditions	thermal conductivity [W/m/K]
236.45 K, 86.1 kPa	0.00838 ± 0.00053
244.29 K, 84.5 kPa	0.00938 ± 0.00059
245.47 K, 132.2 kPa	0.00931 ± 0.00058
246.92 K, 132.2 kPa	0.00972 ± 0.00061
248.24 K, 132.2 kPa	0.00989 ± 0.00062
248.83 K, 84.5 kPa	0.00985 ± 0.00062
254.05 K, 84.5 kPa	0.01031 ± 0.00064
255.52 K, 201.2 kPa	0.01058 ± 0.00066
260.98 K, 132.4 kPa	0.01112 ± 0.00069
265.31 K, 286.1 kPa	0.01142 ± 0.00071
266.46 K, 286.1 kPa	0.01169 ± 0.00073
275.33 K, 370.8 kPa	0.01266 ± 0.00079
276 K, 139.9 kPa	0.01306 ± 0.00081
276.13 K, 370.8 kPa	0.01296 ± 0.00081
277.34 K, 370.8 kPa	0.01294 ± 0.0008
278.06 K, 139.9 kPa	0.01337 ± 0.00083
278.85 K, 139.9 kPa	0.01329 ± 0.00083
286.13 K, 481.4 kPa	0.01426 ± 0.00088
286.26 K, 271.3 kPa	0.01438 ± 0.00089
287.56 K, 578.8 kPa	0.01402 ± 0.00087
287.6 K, 481.4 kPa	0.01425 ± 0.00088
287.72 K, 271.3 kPa	0.01452 ± 0.0009
288.9 K, 481.4 kPa	0.01448 ± 0.0009
289.14 K, 271.3 kPa	0.0144 ± 0.00089
